{"source": "patent US20200338195A1", "about": "“PHARMACEUTICAL COMPOSITIONS COMPRISING 0.25 MG DOSE OF SYNTHETIC HUMAN PEPTIDES FOR TREATING SYSTEMIC LUPUS ERYTHEMATOSUS” (priority 2016, published 2020)", "key": {"[1]": {"test_system": "subjects with active SLE", "assay": "Low dose Edratide therapy, 26-week phase 2 dose-ranging study (Example 2)", "type": "in vivo, human", "excerpt": "The study will test about 200 study subjects, in about 50 centres. The study population will include seropositive SLE patients (presence of anti-dsDNA antibodies by FARRzyme immunoassay, titer ≥30 IU, and/or the Crithidia luciliae immunofluorescence test, and/or antinuclear antibodies (ANA) ≥1:160 or 1:80 in which case the Adjudication Committee would review the subject's data at baseline.\nThe total duration of the study is expected to be 34 weeks: • Screening Phase: <30 days (4 weeks) • Phase 2 double-blind treatment phase: 26 weeks (6 months) • Follow-up phase for safety: 4 weeks\nGlucocorticoid dosing: It is highly recommended to initiate tapering from the baseline dose of prednisone/prednisone equivalent on or after week 4, as clinically indicated from doses ≥15 mg/day to ≥7.5 mg/day; tapering could continue until week 18. No changes in dose of prednisone/prednisone equivalent doses are allowed during weeks 19-26, the last 8 weeks of the trial. No specific tapering regimen is required, but to be determined as clinically indicated by the investigator.\nActive SLE patients will be screened for up to 30 days prior to the baseline visit (visit 2). Each subject will undergo screening evaluations.\nThe subjects must meet the following inclusion criteria: • 1.Subjects diagnosed with SLE must have a documented medical history to meet Systemic Lupus International […] (SLICC) classification criteria for SLE, or have accumulated 4 classification criteria (1997 revised) of the American College of Rheumatology (ACR) for SLE prior to first dose. • 2. Subjects with active SLE must have: • a. At least one BILAG-A and/or two BILAG-B's, and • b. SLEDAI score of 6 or higher, excluding serology scores, and be • c. Serologically-positive as defined by 2 positive ANA or anti-dsDNA antibody test results (titer ≥30 IU by FARR radioimmunoassay and/or the Crithidia luciliae immunofluorescence test, and/or ANA 1:160 or 1:80 in which case the adjudication committee would review the subject's data) of which ≥1 test result must be obtained during screening • 3. Subjects must be ≥18 years of age • 4. SLE patients on stable SLE treatment regimen for at least three (3) months • 5. SLE patients on 15 mg of prednisone/prednisone equivalent, which have been stable for at least 14 days • 6. Subjects receiving 2 g/days of Mycophenolate mofetil (MMF) or ≤1440 mg of Myfortic • 7. Women of child-bearing potential must practice a medically acceptable method of contraception. Acceptable methods include: surgical sterilization, IUD, hormonal preparations, or double barrier method (e.g. condom or diaphragm with spermicidal) • 8. Subjects must be willing and able to give written informed consent prior to entering the study. • 9. Subjects must understand the requirements of the study and agree to comply with the study protocol.\nThe presence of any of the following excludes a subject from study enrollment: • i. Subjects with active Lupus nephritis as defined by a protein to creatinine ratio limit of ≥0.75 and/or active urine sediments defined as hematuria (>10 RBC/HPF) and/or RBC casts. • ii. Subjects with active central nervous system (CNS) Lupus as defined by CNS BILAG-A or BILAG-B. • iii. Subjects with active peripheral nervous system (PNS) Lupus as defined by PNS BILAG-A or BILAG-B. • iv. Subjects receiving >15 mg of glucocorticoid at baseline • v. Subjects having recently received • a. Cyclophosphamide (wash-out period 3 months), • b. Cyclosporine (wash-out period 3 months), • c. Rituximab (wash-out period at least 52 weeks provided that the CD19 count has returned to normal), or • d. Belimumab (wash-out period 6 months) • e. Any investigational drug (wash-out period 5 half-lives of elimination) […]"}, "[2]": {"test_system": "mice afflicted with spontaneous or experimental SLE", "conditions": "mouse, in vivo; cited from earlier work"}, "[3]": {"test_system": "SLE patients with stable, mild to moderate SLE disease", "conditions": "cited from earlier work"}, "[4]": {"test_system": "SLE patients", "conditions": "cited from earlier work; for incidence of adverse events (AEs), % of the subjects: placebo 75%"}, "[5]": {"test_system": "SLE patients", "assay": "PRELUDE Study, phase 2 placebo-controlled efficacy, tolerability and safety study of three doses of Edratide", "conditions": "for early withdrawal due to AE, % of subjects: placebo 2.3%; for AE incidence: 26 weeks, placebo 79.3%", "protocol": "The total study treatment duration was 26 weeks. Scheduled visits were performed at screening, baseline and at weeks 4, 8, 12, 16, 20, 24, and 26 (termination). […] Non-compliance with the tapering down scheme was not regarded as a protocol violation. During the entire course of the study it was allowed to increase the steroid prednisolone dose to up to 60 mg. Use of intravascular/intramuscular steroid was considered a protocol violation. […] PK assessment of CAPTISOL® for all four treatment groups was conducted following the first dose and Weeks 12 and 26 doses. Disease and drug related immunology parameters were tested at baseline and at several time points thereafter.\nThe main inclusion criteria of this trial were: • SLEDAI 2K score of 6-12 • Stable concomitant medications (prednisone<40 mg, NSAIDs, antimalarials) for at least 1 month prior to baseline.\nThe co-primary end-points presented in their hierarchical order below were: • Change from baseline to last observed value (LOV) in SLEDAI 2K score (Landmark Analysis.) • Adjusted Mean SLEDAI 2K (AMS). AMS represents the time weighted average of disease activity as measured by SLEDAI 2K score [area under the curve (AUC) of SLEDAI 2K].\nSecondary end-points: • BILAG proportion of responders. BILAG responders were defined as: • a. Non Responder (NR)—same BILAG score in Last Observed Value (LOV) as in baseline in all systems or new A or B in at least one system compared to baseline (other systems may improve or deteriorate). • b. Substantial Responder (SR)—all systems at LOV are either C or D/E providing that at least one system was either A or B at baseline • c. […] Mental component Score. Change from baseline to LOV • SF-36 (QoL) Physical component Score—Change from Baseline to LOV • Time Weighted Average (TWA) on cumulative steroids dose with p.o. administration.\nExploratory end-points: • Primary end-point sensitivity analysis to steroid increase (excluding the observations following steroid increase) • Proportions of Zero SLEDAI Score at LOV • Time to Zero SLEDAI Score • BILAG Total Score—Change from Baseline to LOV\nFlares Analysis: • Time to medicinal flare • Time to new BILAG A or at least two new B's • Time to new BILAG A or at least two new B's (excluding persistent activity) • Steroid dose (PO)—Change from baseline to LOV • PGA—Physician's Global Assessment"}, "[6]": {"test_system": "peripheral blood lymphocytes (PBL) of SLE patients", "conditions": "cited from earlier work"}}, "note": "Entries after “also recorded” stand apart in the source; their conditions may differ. Like-named read-outs stand apart in the source and are kept apart here.", "data": [{"substance": "H-GYYWSWIRQPPGKGEEWIG-OH [Edratide]", "values": [{"measurement": "global assessment of disease activity based on MCID", "setting": "[1]; 0.25 mg sc every week", "result": "significant improvement"}, {"measurement": "mean Lupus-QOL relative to baseline", "setting": "[1]; 0.25 mg sc every week", "result": "significant improvement"}, {"measurement": "mean time to first confirmed major SLE flare", "setting": "[1]; 0.25 mg sc every week, Fortin definition", "result": "significantly increased"}, {"measurement": "mean time to first confirmed severe SLE flare", "setting": "[1]; 0.25 mg sc every week, new BILAG A or two new BILAG B", "result": "significantly increased"}, {"measurement": "disease parameter/s", "setting": "[1]; 0.25 mg sc every week, specific sub-populations of SLE subjects", "result": "improvements of disease parameter/s; also recorded: improvement of at least one disease parameter"}, {"measurement": "mean glucocorticoid dose relative to baseline", "setting": "[1]; 0.25 mg sc every week, week 26", "result": "significant change"}, {"measurement": "proportion of subjects achieving MCID of one by SLEDAI-2K Responder Index 50", "setting": "[1]; 0.25 mg sc every week, week 26", "result": "significant proportion"}, {"measurement": "proportion of subjects achieving a response by composite SLE Responder Index (cSRI)", "setting": "[1]; 0.25 mg sc every week, week 26", "result": "significant proportion"}, {"measurement": "proportion of subjects achieving response by the SLE Responder Index", "setting": "[1]; 0.25 mg sc every week, week 26", "result": "significant proportion"}, {"measurement": "proportion of subjects having all organ systems either BILAG C or BILAG D/E", "setting": "[1]; 0.25 mg sc every week, week 26", "result": "significant proportion"}, {"measurement": "proportion of subjects with at least one BILAG A or B organ system at baseline dropping by one score without deterioration to BILAG A or B in any other system", "setting": "[1]; 0.25 mg sc every week, week 26, primary outcome", "result": "significant proportion"}, {"measurement": "reduction of the amount of corticosteroid therapy required to control disease activity of SLE", "setting": "[1]; weekly 0.25 mg dose", "result": "effective in enabling reduction"}, {"measurement": "disease manifestations of mice afflicted with spontaneous or experimental SLE", "setting": "[2]", "result": "ameliorate disease manifestations"}, {"measurement": "subjects with an increase in total SLEDAI-2K score of 0-3 points during the study", "setting": "[3]; 0.5 mg group", "result": "Two"}, {"measurement": "subjects with an increase in total SLEDAI-2K score of 0-3 points during the study", "setting": "[3]; 2.5 mg group", "result": 2, "unit": "subjects"}, {"measurement": "subjects reporting AEs during the 8-week follow-up period (off-drug)", "setting": "[3]; all treatment groups", "result": "Approximately 50%"}, {"measurement": "adjusted mean SLEDAI (AMS) score, change from baseline to termination visit", "setting": "[3]; all treatment groups, decrease = improvement", "result": "−0.1 to −1.5", "unit": "points"}, {"measurement": "mean group total BILAG score during the study", "setting": "[3]; any treatment group", "result": "No trend"}, {"measurement": "overall incidence of AEs between all treatment groups", "setting": "[3]; sc twice weekly for 4 weeks, 0.5, 1 or 2.5 mg vs placebo", "result": "no prominent difference"}, {"measurement": "serious adverse events (SAE) throughout the study", "setting": "[3]; sc twice weekly for 4 weeks, 0.5, 1 or 2.5 mg", "result": "No SAE was reported"}, {"measurement": "severity of injection site reactions", "setting": "[3]; sc twice weekly for 4 weeks, all treatment groups", "result": "mild"}, {"measurement": "change of total SLEDAI-2K score during the study", "setting": "[4]; single sc 0.5, 1 or 2.5 mg, any subject except one in the 0.5 mg group (2 to 10 points at Week 4)", "result": "No noteworthy change"}, {"measurement": "incidence of adverse events (AEs), % of the subjects", "setting": "[4]; single sc injection 0.5 mg", "result": 33, "unit": "%"}, {"measurement": "incidence of adverse events (AEs), % of the subjects", "setting": "[4]; single sc injection 1 mg", "result": 67, "unit": "%"}, {"measurement": "incidence of adverse events (AEs), % of the subjects", "setting": "[4]; single sc injection 2.5 mg", "result": 80, "unit": "%"}, {"measurement": "post hoc analysis on BILAG responders, system improved", "setting": "[5]; 0.5 mg Edratide", "result": "improvement mainly in the cutaneous system"}, {"measurement": "Serious Adverse Events (SAEs), % of subjects", "setting": "[5]; 0.5 mg Edratide (6 subjects), placebo 10.3%", "result": 7.1, "unit": "%"}, {"measurement": "Serious Adverse Events (SAEs), % of subjects", "setting": "[5]; 1.0 mg dose group (10 subjects), placebo 10.3%", "result": 11.5, "unit": "%"}, {"measurement": "Serious Adverse Events (SAEs), % of subjects", "setting": "[5]; 2.5 mg dose group (8 subjects), placebo 10.3%", "result": 9.8, "unit": "%"}, {"measurement": "early withdrawal due to AE, % of subjects", "setting": "[5]; Edratide 0.5 mg (5 subjects)", "result": 6.0, "unit": "%"}, {"measurement": "deaths during the study", "setting": "[5]; Edratide 0.5 mg group, most probably septic shock, classified as not related to study drug", "result": "One"}, {"measurement": "AE incidence", "setting": "[5]; Edratide 0.5 mg sc", "result": 82.1, "unit": "%"}, {"measurement": "BILAG substantial responders, % of subjects", "setting": "[5]; Edratide 0.5 mg, ITT, LOV vs baseline, placebo 22%, p=0.03", "result": 36, "unit": "%"}, {"measurement": "subjects with a medicinal flare", "setting": "[5]; Edratide 0.5 mg, ITT, post hoc, n=14, placebo 29% (n=25), p=0.039", "result": 17, "unit": "%"}, {"measurement": "medicinal flare, OR vs placebo", "setting": "[5]; Edratide 0.5 mg, ITT, post hoc, p=0.039", "result": 0.43}, {"measurement": "BILAG substantial response, odds ratio (OR) vs placebo", "setting": "[5]; Edratide 0.5 mg, ITT, p=0.03, not significant after multiplicity adjustment", "result": 2.09}, {"measurement": "change in the SF-36 mental score compared to placebo", "setting": "[5]; Edratide 0.5 mg, opposite trend for the physical score", "result": "slightly better"}, {"measurement": "early withdrawal due to AE, % of subjects", "setting": "[5]; Edratide 1.0 mg (3 subjects)", "result": 3.4, "unit": "%"}, {"measurement": "AE incidence", "setting": "[5]; Edratide 1 mg sc", "result": 77, "unit": "%"}, {"measurement": "BILAG substantial responders, OR vs placebo", "setting": "[5]; Edratide 1 mg, p=0.07 without correction for multiple comparison", "result": 1.85}, {"measurement": "early withdrawal due to AE, % of subjects", "setting": "[5]; Edratide 2.5 mg (3 subjects)", "result": 3.7, "unit": "%"}, {"measurement": "AE incidence", "setting": "[5]; Edratide 2.5 mg sc", "result": 75.6, "unit": "%"}, {"measurement": "safety signal and dose response from the AEs analysis and additional safety data", "setting": "[5]; Edratide 0.5, 1 and 2.5 mg", "result": "no clear dose response and no significant safety signal"}, {"measurement": "early terminations due to AEs vs placebo", "setting": "[5]; Edratide vs placebo", "result": "more often on Edratide than on placebo"}, {"measurement": "cSRI positive responders", "setting": "[5]; ITT, n=26, placebo 20% (n=17), p=0.058, FIG. 4", "result": 34, "unit": "%"}, {"measurement": "BILAG non-responders, seropositive patients", "setting": "[5]; anti-DNA>30 IU at baseline, n=11, placebo 68% (n=21), p=0.05", "result": 42, "unit": "%"}, {"measurement": "BILAG substantial responders, seropositive patients", "setting": "[5]; anti-DNA>30 IU at baseline, placebo 26%, FIG. 2C", "result": 46, "unit": "%"}, {"measurement": "co-primary endpoints (change from baseline to LOV in SLEDAI 2K score; adjusted mean SLEDAI 2K) vs placebo", "setting": "[5]; any of the active treatment groups (0.5, 1, 2.5 mg)", "result": "no differences"}, {"measurement": "SF-36 mental or physical scores, differences between the treatment groups", "setting": "[5]; change from baseline to LOV", "result": "No clinically or statistically significant differences"}, {"measurement": "cumulative change in steroid dose throughout the study, differences between the treatment groups", "setting": "[5]; mean baseline steroids dose 9-10 mg/day of prednisolone", "result": "No clinically or statistically significant differences"}, {"measurement": "BILAG substantial responders, % of subjects", "setting": "[5]; no steroids at baseline, 0.5 mg Edratide, placebo 13%, p=0.05", "result": 54, "unit": "%"}, {"measurement": "mean reduction from baseline SLEDAI-2K score", "setting": "[5]; overall, regardless of treatment", "result": "about 35%"}, {"measurement": "SAE incidence", "setting": "[5]; pooled Edratide group, placebo 10.3%", "result": 9.5, "unit": "%"}, {"measurement": "BILAG substantial responders, % of subjects", "setting": "[5]; prednisolone dose <20 mg at baseline (pooled cohort of 292 subjects), placebo 19%, p=0.007, FIG. 2B", "result": 40, "unit": "%"}, {"measurement": "BILAG substantial response, OR vs placebo", "setting": "[5]; prednisolone dose <20 mg at baseline, p=0.007", "result": 2.75}, {"measurement": "proliferative response of PBL of SLE patients to the human anti-DNA 16/6Id mAB", "setting": "[6]", "result": "inhibit the proliferative response"}]}]}
